Test results reported in patent US20220281848A1, “PYRAZOLE-SUBSTITUTED PYRROLIDINONES AS HERBICIDES” (FMC Corporation, priority 2019, published 2022).

System: plants
Assay: Test D pre-emergence, other plants of Tables D1 and D3
Type: in vivo
Conditions: for damage to plant, ALOMY / damage to plant, AVEFA / damage to plant, BEAVA / damage to plant, BROTE / damage to plant, BRSNN / damage to plant, HORVW / damage to plant, SINAR: pre-emergence, 100=total damage, 0=no damage; for ABUTH damage to plant (100=total damage; 0=no damage) / AMARE damage to plant (100=total damage; 0=no damage) / DIGSA damage to plant (100=total damage; 0=no damage) / ECHCG damage to plant (100=total damage; 0=no damage) / ORYSA damage to plant (100=total damage; 0=no damage) / PANMI damage to plant (100=total damage; 0=no damage) / SETFA damage to plant (100=total damage; 0=no damage): preemergent
Procedure, shortened: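 Seeds treated with herbicide safener; sown in soil; glasshouse, 16 h light, 65% humidity. Sprayed day 1 (pre) or ~day 12 (post). Spray in 0.2% v/v adjuvant. Scored 0–100 damage: 20 DAA pre, 15 d post.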

CN1CC(c2cnn(C)c2C(F)(F)F)C(C(=O)Nc2cccc(F)c2F)C1=O (racemic) [Compound 25]
damage to plant, ALOMY (rate 15, 20 DAA): 0
damage to plant, AVEFA (rate 15, 20 DAA): 0
damage to plant, BEAVA (rate 15, 20 DAA): 0
damage to plant, BROTE (rate 15, 20 DAA): 0
damage to plant, BRSNN (rate 15, 20 DAA): 0
damage to plant, HORVW (rate 15, 20 DAA): 0
damage to plant, SINAR (rate 15, 20 DAA): 0
damage to plant, ALOMY (rate 30, 20 DAA): 0
damage to plant, AVEFA (rate 30, 20 DAA): 0
damage to plant, BEAVA (rate 30, 20 DAA): 0
damage to plant, BROTE (rate 30, 20 DAA): 0
damage to plant, BRSNN (rate 30, 20 DAA): 0
damage to plant, HORVW (rate 30, 20 DAA): 0
damage to plant, SINAR (rate 30, 20 DAA): 0
damage to plant, ALOMY (rate 60, 20 DAA): 0
damage to plant, AVEFA (rate 60, 20 DAA): 0
damage to plant, BEAVA (rate 60, 20 DAA): 0
damage to plant, BROTE (rate 60, 20 DAA): 0
damage to plant, BRSNN (rate 60, 20 DAA): 0
damage to plant, HORVW (rate 60, 20 DAA): 0
damage to plant, SINAR (rate 60, 20 DAA): 0
damage to plant, ALOMY (rate 130, 20 DAA): 0
damage to plant, AVEFA (rate 130, 20 DAA): 0
damage to plant, BEAVA (rate 130, 20 DAA): 0
damage to plant, BROTE (rate 130, 20 DAA): 0
damage to plant, BRSNN (rate 130, 20 DAA): 0
damage to plant, HORVW (rate 130, 20 DAA): 0
damage to plant, SINAR (rate 130, 20 DAA): 0
damage to plant, ALOMY (rate 250, 20 DAA): 0
damage to plant, AVEFA (rate 250, 20 DAA): 0
damage to plant, BEAVA (rate 250, 20 DAA): 0
damage to plant, BROTE (rate 250, 20 DAA): 0
damage to plant, BRSNN (rate 250, 20 DAA): 0
damage to plant, HORVW (rate 250, 20 DAA): 0
damage to plant, SINAR (rate 250, 20 DAA): 0
damage to plant, ALOMY (rate 500, 20 DAA): 0
damage to plant, AVEFA (rate 500, 20 DAA): 0
damage to plant, BEAVA (rate 500, 20 DAA): 0
damage to plant, BROTE (rate 500, 20 DAA): 10
damage to plant, BRSNN (rate 500, 20 DAA): 20
damage to plant, HORVW (rate 500, 20 DAA): 0
damage to plant, SINAR (rate 500, 20 DAA): 0
ABUTH damage to plant (100=total damage; 0=no damage) (Rates 15, 20 DAA): 0
AMARE damage to plant (100=total damage; 0=no damage) (Rates 15, 20 DAA): 0
DIGSA damage to plant (100=total damage; 0=no damage) (Rates 15, 20 DAA): 0
ECHCG damage to plant (100=total damage; 0=no damage) (Rates 15, 20 DAA): 0
ORYSA damage to plant (100=total damage; 0=no damage) (Rates 15, 20 DAA): 0
PANMI damage to plant (100=total damage; 0=no damage) (Rates 15, 20 DAA): 0
SETFA damage to plant (100=total damage; 0=no damage) (Rates 15, 20 DAA): 0
ABUTH damage to plant (100=total damage; 0=no damage) (Rates 30, 20 DAA): 0
AMARE damage to plant (100=total damage; 0=no damage) (Rates 30, 20 DAA): 0
DIGSA damage to plant (100=total damage; 0=no damage) (Rates 30, 20 DAA): 60
ECHCG damage to plant (100=total damage; 0=no damage) (Rates 30, 20 DAA): 20
ORYSA damage to plant (100=total damage; 0=no damage) (Rates 30, 20 DAA): 0
PANMI damage to plant (100=total damage; 0=no damage) (Rates 30, 20 DAA): 0
SETFA damage to plant (100=total damage; 0=no damage) (Rates 30, 20 DAA): 0
ABUTH damage to plant (100=total damage; 0=no damage) (Rates 60, 20 DAA): 0
AMARE damage to plant (100=total damage; 0=no damage) (Rates 60, 20 DAA): 0
DIGSA damage to plant (100=total damage; 0=no damage) (Rates 60, 20 DAA): 80
ECHCG damage to plant (100=total damage; 0=no damage) (Rates 60, 20 DAA): 60
ORYSA damage to plant (100=total damage; 0=no damage) (Rates 60, 20 DAA): 0
PANMI damage to plant (100=total damage; 0=no damage) (Rates 60, 20 DAA): 0
SETFA damage to plant (100=total damage; 0=no damage) (Rates 60, 20 DAA): 10
ABUTH damage to plant (100=total damage; 0=no damage) (Rates 130, 20 DAA): 0
AMARE damage to plant (100=total damage; 0=no damage) (Rates 130, 20 DAA): 0
DIGSA damage to plant (100=total damage; 0=no damage) (Rates 130, 20 DAA): 90
ECHCG damage to plant (100=total damage; 0=no damage) (Rates 130, 20 DAA): 90
ORYSA damage to plant (100=total damage; 0=no damage) (Rates 130, 20 DAA): 0
PANMI damage to plant (100=total damage; 0=no damage) (Rates 130, 20 DAA): 0
SETFA damage to plant (100=total damage; 0=no damage) (Rates 130, 20 DAA): 60
ABUTH damage to plant (100=total damage; 0=no damage) (Rates 250, 20 DAA): 0
AMARE damage to plant (100=total damage; 0=no damage) (Rates 250, 20 DAA): 0
DIGSA damage to plant (100=total damage; 0=no damage) (Rates 250, 20 DAA): 90
ECHCG damage to plant (100=total damage; 0=no damage) (Rates 250, 20 DAA): 90
ORYSA damage to plant (100=total damage; 0=no damage) (Rates 250, 20 DAA): 0
PANMI damage to plant (100=total damage; 0=no damage) (Rates 250, 20 DAA): 0
SETFA damage to plant (100=total damage; 0=no damage) (Rates 250, 20 DAA): 60
ABUTH damage to plant (100=total damage; 0=no damage) (Rates 500, 20 DAA): 0
AMARE damage to plant (100=total damage; 0=no damage) (Rates 500, 20 DAA): 0
DIGSA damage to plant (100=total damage; 0=no damage) (Rates 500, 20 DAA): 90
ECHCG damage to plant (100=total damage; 0=no damage) (Rates 500, 20 DAA): 90
ORYSA damage to plant (100=total damage; 0=no damage) (Rates 500, 20 DAA): 0
PANMI damage to plant (100=total damage; 0=no damage) (Rates 500, 20 DAA): 0
SETFA damage to plant (100=total damage; 0=no damage) (Rates 500, 20 DAA): 90
